This is an account of results in ChEMBL document CHEMBL1154476 (Eur J Med Chem, 2008).

This assay addresses T1, Ribosyldihydronicotinamide dehydrogenase [quinone] (Homo sapiens, UniProt P16083).
T1 sequence (P16083 whole entry): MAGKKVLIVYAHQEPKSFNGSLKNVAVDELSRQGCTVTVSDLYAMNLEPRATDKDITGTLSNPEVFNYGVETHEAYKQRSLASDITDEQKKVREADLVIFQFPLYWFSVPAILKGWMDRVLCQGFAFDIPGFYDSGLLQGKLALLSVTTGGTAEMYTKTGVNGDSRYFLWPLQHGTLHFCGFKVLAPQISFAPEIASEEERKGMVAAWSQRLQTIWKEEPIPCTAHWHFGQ
The assay can be described thus: Displacement of [125I]iodomelatonin from MT3/QR2 melatonin binding site expressed in CHO cells. The class given is cell-based. (In a radioligand displacement assay an active substance lowers the binding of a labelled ligand.)

Each structure is given as a SMILES string.

In turn, `COc1ccc2c(CCNC(=O)C3CCC3)cccc2c1` showed an IC50 of 70.8 nM. With `COc1ccc2[nH]cc(CCNC(C)=O)c2c1[N+](=O)[O-]` the figure was 1.2 nM. With `COc1ccc2occ(CCNC(C)=O)c2c1` the figure was 64.6 nM. With `COc1ccc2c(c1)c(CCNC(C)=O)cn2C` the figure was 2.82 nM; with `COc1ccc2cccc(CCNC(=O)c3ccccc3)c2c1`, 28.8 nM; with `COc1ccc2cccc(CCNC(=O)C(C)C)c2c1`, 43.7 nM. For the compound `CC(=O)NCCc1c[nH]c2ccc([N+](=O)[O-])cc12`, the IC50 is 41.7 nM. With `CS(=O)(=O)NCCc1cccc2ccccc12` the figure was 28.2 nM; with `COC(=O)Nc1ccc2occ(CCNC(C)=O)c2c1`, 15.8 nM. With `COC(=O)Nc1ccc2occ(CCNC(=O)c3ccccc3)c2c1` the figure was 67.6 nM; with `CNC(=O)c1ccc2cccc(CNC(C)=O)c2c1`, 12 nM.

Take `CC(=O)NCCc1cccc2ccc([S+](C)[O-])cc12` (centres undefined): the IC50 is 37.2 nM. The figure for `COC(=O)Nc1ccc2cccc(CNC(=O)C3CC3)c2c1` is 24 nM; for `CSc1ccc2cccc(CCNC(C)=O)c2c1` it is 18.2 nM.

For the compound `CCOC(=O)c1[nH]c2ccc(OC)cc2c1CCNC(C)=O`, the IC50 was 3.02 nM. This IC50 lies about 6-fold lower than the previous one. `COc1ccc2cccc(CC3=NC(=O)NC3=O)c2c1`: the IC50 is 61.7 nM. With `COc1ccc2cccc(CCN3CCOC3=O)c2c1` the figure was 14.1 nM. With `COc1ccc2cccc(CCNC(=O)c3ccco3)c2c1` the figure was 53.7 nM. With `O=C(NCCc1cccc2ccc(O)cc12)c1ccco1` the figure was 11 nM. Compound `CC(=O)NCCc1cccc2ccc(S(N)(=O)=O)cc12` showed an IC50 of 32.4 nM. Turning to `CC(C)(C)OC(=O)NCCc1cccc2ccc(O)cc12`, the IC50 is 51.3 nM. Compared with the last compound, the IC50 is about 1.6-fold higher. The figure for `CNS(=O)(=O)c1ccc2cccc(CCNC(=O)c3ccco3)c2c1` is 9.12 nM; for `CC(=O)NCCc1cccc2ccc(S(C)(=O)=O)cc12` it is 20.9 nM; for `C=CCC(=O)NCCc1cccc2ccc(O)cc12` it is 7.76 nM.

`COC(=O)c1ccc2cccc(CNC(=O)c3ccco3)c2c1` had an IC50 of 52.5 nM.

`C=CCC(=O)NCCc1coc2ccc(NC(=O)OC)cc12`: the IC50 is 11 nM. With `COC(=O)c1ccc2occ(CCNC(=O)C3CCCC3)c2c1` the figure was 18.2 nM; with `COC(=O)c1ccc2occ(CCNC(C)=O)c2c1`, 14.1 nM. Take `NC(=O)c1ccc2occ(CCNC(=O)c3ccco3)c2c1`: the IC50 is 67.6 nM. The figure for `COc1ccc2cccc(CCNC(=O)CN3CCCC3=O)c2c1` is 61.7 nM; for `COC(=O)Nc1ccc2[nH]c(I)c(CCNC(C)=O)c2c1` it is 0.302 nM; for `COC(=O)Nc1ccc2occ(CCNC(=O)C(C)C)c2c1` it is 22.9 nM.

In turn, `COC(=O)Nc1ccc2occ(CCNC(=O)c3ccco3)c2c1` had an IC50 of 56.2 nM.

For the compound `COc1ccc2c(c(CCNC(C)=O)cn2C)c1[N+](=O)[O-]`, the IC50 is 0.309 nM.

Broadly, the IC50 is the concentration that inhibits the measured activity by half.
